According to a melting point compilation (Tetko et al.; mined from patent text by program, amines drawn as free bases though some values may be those of a salt):

First: O=C(NCCNCc1cc2ccc(O)cc2o1)C12CC3CC(CC(C3)C1)C2
Second: Oc1ccc2ccc(OCCN3CCC(Cc4ccccc4)CC3)cc2c1
The melting point of the first is lower: 136 to 139 °C for the first, 159 to 160 °C for the second.

First: O=C(O)CNCCOc1cccc(CCNS(=O)(=O)c2ccc(Cl)cc2)c1
Second: C#CCOc1ccc(S(=O)(=O)C2(C(=O)O)CCN(Cc3ccc(OC)cc3)CC2)cc1
The melting point of the first is lower: 205 to 207 °C for the first, 208 °C for the second.

First: C[C@@H]1CN(CCNC(=S)N(C)C)CC[C@@H]1Nc1nc2ccccc2n1Cc1ccc(F)cc1 (relative stereo)
Second: COCC1c2ccccc2CCN1c1nc(Nc2ccc(F)cc2)nc(C)c1C (centres undefined)
The melting point of the first is lower: 127 °C for the first, 193 to 195 °C for the second.

Compared with `CNC(=O)n1sc(Cc2ccccc2)nc1=O`, `O=C1CCN(Cc2ccccc2)C(=O)C1=C1SC=CS1` is lower in melting point: 146 °C for the first, 122 to 124 °C for the second.

Compared with `C=COCCONC(=O)c1cc(F)c(F)c(F)c1Nc1ccc(I)cc1Cl`, `CCNCC1CN(c2c(F)cc3c(=O)c(C(=O)O)cn(-c4ccc(F)cc4F)c3c2F)CCO1` (centres undefined) is higher in melting point: 115 to 116 °C for the first, 226 to 229 °C for the second.

First: O=C(Nc1ccc2cc(CN3CCCC3)cnc2c1)c1ccc(-c2ccc(Cl)cc2)cc1F
Second: O=[N+]([O-])c1ccccc1CN1CCC(c2cc(-c3ccc(Cl)cc3)[nH]n2)CC1
The melting point of the first is higher: 177 °C for the first, 150 to 151 °C for the second.

Going from `O=C1Nc2cc(NC(=O)c3cccn(-c4ccc(F)cc4)c3=O)ccc2/C1=C/c1ccc[nH]1` to `COC(=O)c1ccc(-c2ccc(-c3ccccc3)c(OS(=O)(=O)C(F)(F)F)c2)cc1`, the melting point falls from greater than 300 °C to 95 °C.

Compared with `Cc1ccccc1-c1nnc(N2CCC(O)CC2)nc1-c1ccccc1C`, `CN1CCC(=C2c3ccccc3C3=C(c4ccccc42)C2(C)C=CC3O2)CC1` (centres undefined) is higher in melting point: 155 to 156 °C for the first, 175 to 177 °C for the second.

First: CCN(CC)C(=O)C(Cl)=C(Cl)C(=O)O
Second: CCOC(=O)C1COc2c(C=O)cc(Cl)c(Cl)c2O1 (centres undefined)
The melting point of the first is higher: 154 to 155 °C for the first, 110 to 113 °C for the second.

First: CC(C(=O)O)c1ccc(OCCNC(=O)C2Cc3ccccc3N2S(=O)(=O)c2ccc(-c3cccc(C(F)(F)F)c3)cc2)cc1 (centres undefined)
Second: CN(C(=O)c1cn2ccc(-c3ccc(Cl)cc3)cc2n1)C(Cc1ccc(OCc2ccccc2)cc1)C(=O)O (centres undefined)
The melting point of the first is lower: 92 to 96 °C for the first, 222 °C for the second.

Compared with `O=C1CCCC2=C1C(c1ccc(S(=O)(=O)c3ccccc3)cc1)C1=C(CCCC1=O)N2`, `O=Cc1cc2n(n1)-c1ccc(Cl)cc1C(c1ccccc1)NC2=O` (centres undefined) is higher in melting point: 260 °C for the first, 276 to 278 °C for the second.

First: Nc1ccc2c(-c3ccccc3)c([N+](=O)[O-])oc2c1
Second: CSc1ccc(C(=O)Nc2ccccc2)cc1N
The melting point of the first is higher: 212 to 214 °C for the first, 143 to 145 °C for the second.

Compared with `Nc1ncc(C#Cc2ccc(Cl)cc2)c(NCCOCCO)n1`, `Nc1ccc(Oc2ccc(Cl)c(Cl)c2)nc1` is lower in melting point: 176 to 180 °C for the first, 78 to 79.3 °C for the second.

First: Oc1ccc(C=C(Cl)Cl)cc1
Second: CCOC(=O)C(O)c1ccccc1Nc1c(Cl)cccc1Cl (centres undefined)
The melting point of the first is lower: 90 to 91 °C for the first, 155 to 156 °C for the second.

Compared with `CCCOC(=O)c1ccc(C#CC2(O)CN3CCC2CC3)cc1O` (centres undefined), `N#Cc1c(NC(=O)CO)cccc1N1CCCCC1` is lower in melting point: 173 to 175 °C for the first, 121 to 124 °C for the second.

First: N#Cc1cc(C#N)cc(Oc2ccnc(Oc3cc(Cl)cc(Cl)c3)n2)c1
Second: COCc1cnn2c(-c3cccc(C(F)(F)F)c3)ccnc12
The melting point of the first is higher: 196 °C for the first, 114 to 116 °C for the second.

First: CC(=O)Nc1ccc2c(c1)OCC2
Second: O[C@@H]1c2ccccc2CN2CCC[C@@H]12 (relative stereo)
The melting point of the first is lower: 115 to 118 °C for the first, 131 to 133 °C for the second.

First: O=C(/C=C/c1cccc(S(=O)(=O)N2CCN(c3cccc(C(F)(F)F)c3)CC2)c1)NO
Second: COC(=O)C1=Cc2cc(-c3ccc(N4CCOCC4)cc3)ccc2S(=O)(=O)CC1
The melting point of the first is lower: 173 °C for the first, 215 to 217 °C for the second.

First: COc1cccc2c(=O)n3c(C)c(Br)sc3nc12
Second: CC(C)(O)Cc1c2c(nn1CCO)c(N)nc1ccccc12
The melting point of the first is higher: 198 to 199 °C for the first, 196 to 198 °C for the second.

Compared with `O=C(NCc1cccnc1)c1sc(N2CCN(Cc3ccc(F)cc3)C2=O)nc1C(F)(F)F`, `O=C(CCc1nnc(Nc2ccccc2Cl)o1)NC1CCN(Cc2ccc(F)c(F)c2)CC1` is higher in melting point: 161 to 162 °C for the first, 162 to 163 °C for the second.

First: COc1ccc(C(=O)Nc2ccccc2CCCC2CCCCN2C)cc1 (centres undefined)
Second: COc1ccc(N2CCN(CCCCc3ccc(C4CCC(=O)N4)cc3)CC2)cc1 (centres undefined)
The melting point of the first is lower: 107 to 110 °C for the first, 155 to 156 °C for the second.

First: Nc1ccc(Oc2ccc(C3(c4ccc(Oc5ccc(N)c(O)c5)cc4)C4CC5CC(C4)CC3C5)cc2)cc1O
Second: Cc1cc(-c2cc(O)c(SCCc3ccccc3)c(=O)o2)ccc1OCc1ccccc1
The melting point of the first is higher: greater than 160 °C for the first, 147 to 148 °C for the second.

First: C=CCOCc1c(CO)sc2c(=O)c(C(=O)NCc3ccc(Cl)cc3)cn(C)c12
Second: COC(=O)c1ccc(CC(=O)Nc2cc(Cl)ccc2N2CCCCC2)cc1
The melting point of the first is higher: 184 to 185 °C for the first, 156 to 158 °C for the second.

Compared with `CC(C)CCNc1nc2ccccc2cc1[N+](=O)[O-]`, `O=[N+]([O-])c1cc2ccc(C(Cl)(Cl)Cl)nc2c2nc(C(Cl)(Cl)Cl)ccc12` is higher in melting point: 99 to 100 °C for the first, 228 to 231 °C for the second.

First: COc1ccc(-n2ncc(-c3ccc(C=Cc4ccc(-c5nc6ccccc6o5)cc4)cc3)n2)cc1
Second: CCc1cc(OCc2ccc(-c3ccccc3-c3nnnn3-c3ccc([N+](=O)[O-])cc3)cc2)c2c(n1)CCCC2
The melting point of the first is higher: 255 °C for the first, 205 to 207 °C for the second.

First: Cc1cc(Nc2cc(-c3ccccc3)nc3ccccc23)[nH]n1
Second: CCC[C@](CCO)(CCc1ccccc1)OCOc1ccc(-c2ccccc2)cc1
The melting point of the first is higher: 242 to 244 °C for the first, 49 to 53 °C for the second.

First: O=C(c1ccc([N+](=O)[O-])cc1)N1Cc2ccccc2Sc2ccccc21
Second: O=C(c1ccc(Br)cc1)c1ccc2cc[nH]c2c1
The melting point of the first is higher: 147 to 149 °C for the first, 47 to 49 °C for the second.

Compared with `CCOC(C)c1ccc(OCCCN2CCC(c3noc4cc(F)ccc34)CC2)c(OC)c1` (centres undefined), `COc1cc(C(=O)O)ccc1Cc1cn(C)c2ccc(CCNC(=O)N3CCOCC3)cc12` is higher in melting point: 139 °C for the first, 221 to 226 °C for the second.

First: CCOC(=O)N1C[C@@H]2CC[C@H]1C(=O)C2
Second: COc1ccccc1N1CCC(CNC[C@H]2COc3ccccc3O2)CC1
The melting point of the first is lower: 68.5 to 69.5 °C for the first, 78 to 79 °C for the second.

Compared with `CC(C)Sc1nc2c(cc1C#N)C(=O)CC(C)(C)C2`, `Cc1cc(CC2SCNC2=O)cc(C(C)(C)C)c1O` (centres undefined) is lower in melting point: 135 to 136 °C for the first, 64 to 68 °C for the second.

Compared with `COC(=O)C(C)Oc1ccc(Oc2ccc(Br)cc2F)cc1` (centres undefined), `COc1ccc(C(C)=NOCc2cccc(F)c2)cc1F` is higher in melting point: 62 to 64 °C for the first, 67 °C for the second.

First: Oc1ccc(F)c2c1C[C@@H](N(C1CCC1)C1CCC1)CO2
Second: c1ccc(N2CCOCC2)c(N=C2NCCN2)c1
The melting point of the first is lower: 170 to 172 °C for the first, 185 to 186 °C for the second.

First: Nc1c(-c2cc(Cl)ccc2O)c2c(C(F)(F)F)cc(C(F)(F)F)cc2[nH]c1=O
Second: COc1ccc(-c2cn(C)cc(-c3ccc(OC)c(OC)c3)c2=O)cc1OC
The melting point of the first is higher: 230 to 233 °C for the first, 182 to 184 °C for the second.

Compared with `CC1(C)CCC(C)(C)c2cc(-c3cc(-c4ccc(C(=O)O)cc4)ccc3OCC(O)CO)ccc21` (centres undefined), `COCc1c(C(C)C)nc(-c2ccc(F)cc2)c(C=O)c1C(C)C` is lower in melting point: 258 °C for the first, 77 °C for the second.

`CCc1cnc(N2CCN(C(=O)c3ccccc3NC3=c4ccccc4=NCN3c3ccccc3)CC2)nc1` gave a melting point of 204 to 205 °C.
